“And” between values parts separate entries of the source, which are not always exact repeats. Identical values can stand only once. “Also recorded” adds a separate entry of the source.
How the values were obtained:
[1] = target: T1, βPKC (Rattus norvegicus, UniProt P68403); assay: Sensitivity of βPKC to Arg-C endopeptidase (nicking); assay type: biochemical; details: low activators: 2.5 μg/ml PS and 50 μM CaCl2; for nicking of βPKC by Arg-C (78 kDa fragment): peptide 10 μM
T1 construct: All the solutions contained 5 nM rat brain PKC; from tissue; host or cells: rat brain
From the text: Upon activation of PKC, a pseudosubstrate autoinhibitory sequence at the N-terminus of the molecule dissociates from the catalytic site and becomes sensitive to endopeptidase Arg-C (Orr, et al.). In the absence of PKC activators, exposure of the 80 kDa βPKC to endopeptidase Arg-C has no effect on the enzyme (see FIG. 7, lane 1). In the presence of the PKC activators PS, DG and calcium, however, exposure of βPKC to Arg-C results in a “nicking” of the PKC (i.e. limited proteolysis generating a 78 kDa fragment and several small fragments (see FIG. 7, lane 2)). Continued exposure to Arg-C results in the disappearance of βPKC (Orr, et al.). The present experiment tests whether peptides derived from the WD-40 region of RACK1 alter the sensitivity of βPKC to endopeptidase Arg-C.
The methods used to assay Arg-C sensitivity are a modification of methods described by Orr, et al. Rat brain PKC (˜5 nM) was incubated at room temperature in 500 μl of 20 mM Tris-HCl buffer (pH 7.5) alone or with Arg-C (5 units/ml) in the presence or absence of the indicated peptides (final concentration 10 μM or as indicated), PS, DG, and calcium (as indicated). 50 μl aliquots were removed into 20 μl of sample buffer during the reaction as indicated (samples in all the lanes were incubated for 30 minutes , except lanes 5, and 6, which were incubated for 5 and 15 minutes, respectively). The samples were boiled for 10 minutes at 80° C. and loaded onto 8% SDS-PAGE. βPKC was detected by Western blot analysis using anti-βPKC antibodies as described in Examples 6 and 8.
PKC was incubated for the indicated time alone (lane 1) or in the presence of Arg-C (lanes 2-9), with DG (0.8 μg/ml), PS (50 μg/ml) and CaCl2 (1 mM; lane 2), with PS (50 μg/ml) and CaCl2 (1 mM; lane 3), with PS (2.5 μg/ml) and CaCl2 (50 μM; lane 4); with PS (2.5 μg/ml), CaCl2 (50 μM) and with either peptide rVI (SEQ ID NO:7; 10 μM; lanes 5-7), control peptide (SEQ ID NO:9; lane 8) or with peptide I (SEQ ID NO:1; lane 9).

[2] = system: Xenopus oocytes; assay: PKC-mediated Xenopus oocyte maturation (germinal vesicle breakdown, GVBD) after peptide microinjection; assay type: cell-based; details: for plateau % GVBD (fraction of oocytes reaching maturation) following insulin exposure: peptide 50 μM, 50 nl microinjected, 20 h time course
Experimental: Exposure to insulin induces maturation in Xenopus oocytes via a PKC-dependent pathway (Smith, et al., 1992). The maturation response may be quantified by monitoring the appearance of a white spot in the animal hemisphere of the oocyte, indicating germinal vesicle breakdown (GVBD) and maturation. To assess the effects of RACK1 WD-40-derived peptides on insulin-induced PKC-mediated maturation, 50 nl of a 20 mM NaCl solution containing the indicated peptides [peptide I (SEQ ID NO:1; ●), peptide rVI (SEQ ID NO:7; ▪), or injection solution (□)] (peptides at 50 μM) were microinjected into Xenopus oocytes. […] One hour following the peptide injections, the oocytes were exposed to a solution containing insulin (8.25 μg/ml) for 2 minutes (t=0). 10-15 oocytes were used for each sample.
The data, representative of three independent experiments, are expressed as the percent of oocytes with GVBD following insulin exposure and are plotted as a function of time in FIG. 5.

[3] = system: PKC; assay: PKC autophosphorylation; assay type: biochemical, rat; details: peptide 10 μM; absence of PKC activators
Experimental: Rat brain PKC (˜10 nM) was incubated with mild agitation in a final volume of 250 μl of overlay buffer, as in Example 1 either with anti-βPKC pseudosubstrate antibodies (1:10 dilution, Life Technologies, Gaithersburg, Md.) or with the indicated peptide (10 μM). Where indicated, PS (50 μg/ml), DG (0.8 μg/ml) and CaCl2 (1 mM) were also added. The amount of autophosphorylation was determined after 2 hours for the reaction with the anti-pseudosubstrate antibodies, or after 15 minutes for the other samples. 50 μl of a buffer comprised of 20 mM Tris-HCl (pH 7.5), 20 mM MgCl2, 20 μM ATP and 5 μci/ml [γ-^32P]ATP. The mixture was incubated for 15 minutes at room temperature and the reaction was stopped by adding 60 μl sample buffer (see Example 9). The samples were then boiled for 10 minutes, loaded onto a 10% SDS-PAGE mini gel and electrophoresed. The gel was fixed with 50% methanol and 10% acetic acid for 1 hour, and the autophosphorylation of PKC was determined by autoradiography.
The results in FIG. 8 show PKC autophosphorylation in the presence of DG, PS, and calcium (lane 1), in the presence of EGTA (lane 2), in the presence of anti-βPKC pseudosubstrate antibodies (diluted 1:10 in 20 mM Tris-HCl; lane 3), in the presence of peptide rVI (SEQ ID NO:7; 10 μM; lane 4), in the presence of peptide I (SEQ ID NO:1; 10 μM; lane 5), or in the presence of control peptide (SEQ ID NO:9; 10 μM; lane 6).

[4] = system: Xenopus oocytes; assay: PKC-mediated Xenopus oocyte maturation (germinal vesicle breakdown, GVBD) after peptide microinjection; assay type: cell-based; details: for dose dependence of effect on GVBD: between 5 μm-500 μM
[5] = peptide 50 μM microinjected, insulin 8.25 μg/ml
[6] = peptide 50 μM alone, no insulin

T1 sequence (P68403 whole entry, the tested form may be a part): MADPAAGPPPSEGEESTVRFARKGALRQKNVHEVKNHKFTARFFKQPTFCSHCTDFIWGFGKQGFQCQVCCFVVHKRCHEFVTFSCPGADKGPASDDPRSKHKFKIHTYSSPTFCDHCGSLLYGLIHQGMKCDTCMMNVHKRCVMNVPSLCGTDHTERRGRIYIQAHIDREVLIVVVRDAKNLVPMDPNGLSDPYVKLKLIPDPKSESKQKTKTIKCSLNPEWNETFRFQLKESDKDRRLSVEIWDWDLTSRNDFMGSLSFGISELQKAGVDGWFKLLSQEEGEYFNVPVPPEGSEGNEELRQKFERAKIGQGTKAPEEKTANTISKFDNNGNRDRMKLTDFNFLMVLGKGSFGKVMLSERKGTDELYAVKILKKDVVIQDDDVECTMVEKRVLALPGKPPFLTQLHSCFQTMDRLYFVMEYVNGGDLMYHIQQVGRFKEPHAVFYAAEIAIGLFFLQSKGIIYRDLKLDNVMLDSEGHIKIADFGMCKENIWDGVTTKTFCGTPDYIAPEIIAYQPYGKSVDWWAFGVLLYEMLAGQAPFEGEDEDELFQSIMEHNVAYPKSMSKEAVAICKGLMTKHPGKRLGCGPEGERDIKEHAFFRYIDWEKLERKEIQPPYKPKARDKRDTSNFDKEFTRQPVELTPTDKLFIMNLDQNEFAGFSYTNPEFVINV

Row | Substance | lowest peptide concentration sufficient to result in nicking activity [1] [nM] | nicking of βPKC by Arg-C (78 kDa fragment) [1] | delay to onset of maturation after exposure to insulin [2, 5] [h] | time to reach GVBD plateau after insulin exposure [2, 5] [h] | plateau % GVBD (fraction of oocytes reaching maturation) following insulin exposure ([2]; insulin 8.25 μg/ml) | effect on insulin-induced oocyte maturation (in words) ([2]; peptide microinjected, insulin) | PKC autophosphorylation relative to that with optimal PS, DG and calcium [3] | dose dependence of effect on GVBD [4] | delay to initiation of maturation in the absence of insulin [4, 6] [h] | induction of GVBD in the absence of insulin [4, 6] | plateau % GVBD in the absence of insulin [4, 6] | induction of PKC autophosphorylation (in words) [3]
1 | peptide rVI: eight amino acid peptide identical to a segment of RACK1 WD-40 repeat VI (DIINALCF) | 10 | time-dependent appearance of the 78 kDa nicked PKC fragment | 3 to 4 | ≤ 5 | ~100% and 95-100% | potentiates the effects of insulin on oocyte maturation | over 80% | dose-dependent | 6 to 7 | induced oocyte maturation; also recorded: induced GVBD | about 50% | –
2 | peptide I: 15-residue peptide homologous to a sequence in the sixth WD-40 repeat of RACK1; PKC antagonist (KGDYEKILVALCGGN) | – | did not result in appreciable nicking activity; also recorded: did not occur | – | – | 45-50% | – | – | dose-dependent | – | – | – | No autophosphorylation; also recorded: Neither peptide I nor control peptide induced PKC autophosphorylation
